Results as given in US8703951B2, “Synthesis of 4H-benzo[D]pyrrolo[1,2-A]thiazoles and indolizino[6,7-b]indole derivatives and their use as antitumor therapeutic agents” (Academia Sinica, priority 2011, dated 2014).
Read-outs that look alike come from different tables or passages of the source.

How the values were obtained:
oral cancer OECM-1 = experiment: In vitro cytotoxicity, Alamar blue assay, OECM-1; type: cell-based, human
Description: (§1) Prostate cancer PC3, non-small cell lung carcinoma cells H1299, and human glioma cells U87 were purchased from the American Type Culture Collection (Rockville, Md.). OECM-1 (human gingival squamous cell carcinoma cells) was obtained from Dr C.-L. Meng (National Defense Medical College, Taiwan).^22
(§2) In preparation for in vitro cytotoxicity assays, cells were cultured at an initial density 2−5×10^4 cells per milliliter. They were maintained in a 5% CO2-humidified atmosphere at 37° C. in RPMI medium 1640 (GIBCO/BRL) containing penicillin (100 units/mL), streptomycin (100 μg/mL, GIBCO/BRL), and 5% heat-inactivated FBS. For cells grown in suspension (such as CCRF-CEM and its sublines), cytotoxicity was measured, by using XTT microculture method^23 in 96-well microtiter plates.
(§3) The cytotoxic effects of the newly synthesized compounds were determined in T-cell acute lymphocytic leukemia (CCRF-CEM) and their resistant subcell lines (CCRF-CEM/Taxol and CCRF-CEM/VBL) by the XTT assay^24 and human solid tumor cells (i.e. breast carcinoma MX-1 and colon carcinoma HCT-116) by the SRB assay^25 in a 72 h incubation using a microplate spectrophotometer as described previously.^25 After the addition of phenazine methosulfate-XTT solution, incubated at 37° C. for 6 h and absorbance at 450 and 630 nm was detected on a microplate reader (EL 340). The cytotoxicity of the newly synthesized compounds against non-small cell lung carcinoma H1299, prostate cancer PC3, oral cancer OECM-1 and glioma U87 were determined by the Alamar blue assay^26 in a 72 h incubation using a microplate spectrophotometer as described previously. After the addition of alamar blue solution, it was incubated at 37° C. for 6 h. Absorbance at 570 and 600 nm was detected on a microplate reader. IC50 values were determined from dose-effect relationship at six or seven concentrations of each drug using the CompuSyn software by Chou and Martin^27 based on the median-effect principle and plot.^28,29 Ranges given for Cisplatin were mean±SE (n=4).

prostate cancer PC3 = experiment: In vitro cytotoxicity, Alamar blue assay, PC3; type: cell-based, human; details: Table 6, 72 h
Description: as §1, §2, §3

[1] = tested on: human lymphoblastic leukemia (CCRF-CEM); experiment: In vitro cytotoxicity, XTT assay, CCRF-CEM; type: cell-based
Text: (§4) Human colon carcinoma HCT-116 cells and human prostate adenocarcinoma PC-3 cells were obtained from American Type Culture Collection (ATCC, Rockville, Md.). Human mammary carcinoma (MX-1) tumor cells were obtained from MSKCC cell bank. The CCRF-CEM human lymphoblastic leukemia cells and their vinblastine resistant subline (CCRF-CEM/VBL, 680-fold resistance in vitro) were obtained from Dr. William Beck of the University of Illinois, Chicago, and CCRF-CEM/Taxol (330-fold resistance in vitro). Resistant cells CCRF-CEM/taxol were produced by exposing the parent cells to increasing sublethal concentration (IC50-IC90) of paclitaxel for six months.
as §2, §3

[2] = tested on: non-small cell lung carcinoma H1299; experiment: In vitro cytotoxicity, Alamar blue assay, H1299; type: cell-based, human
Description: as §1, §2, §3

glioma U87 = experiment: In vitro cytotoxicity, Alamar blue assay, U87; type: cell-based, human; details: Table 6, 72 h
Description: as §1, §2, §3

CCRF-CEM/Taxol = experiment: In vitro cytotoxicity, XTT assay, CCRF-CEM/Taxol; type: cell-based, human; details: Table 5; for IC50: Taxol-resistant subline, XTT, 72 h, read-out: Cell Growth inhibition (IC50 μM) CCRF-CEM/Taxol; for fold of cross-resistant vs IC50 of the parent cell line, CCRF-CEM/Taxol: number in brackets
Text: as §4, §2, §3

CCRF-CEM/VBL = experiment: In vitro cytotoxicity, XTT assay, CCRF-CEM/VBL; type: cell-based, human; details: Table 5; for IC50: vinblastine-resistant subline, XTT, 72 h, read-out: Cell Growth inhibition (IC50 μM) CCRF-CEM/VBL; for fold of cross-resistant vs IC50 of the parent cell line, CCRF-CEM/VBL: number in brackets
Text: as §4, §2, §3

breast carcinoma MX-1 = experiment: In vitro cytotoxicity, SRB assay, MX-1; type: cell-based, human
Text: as §4, §2, §3

colon carcinoma HCT-116 = experiment: In vitro cytotoxicity, SRB assay, HCT-116; type: cell-based, human
Text: as §4, §2, §3

[3] = Table 5, 72 h incubation, read-out: Cell Growth inhibition (IC50 μM) CCRF-CEM
[4] = Table 7, 72 h, read-out: IC50 (μM) CCRF/CEM

## OCc1c(CO)c2sc3ccccc3n2c1C1CC1 [Compound 18j, (1-Cyclopropylbenzo[d]pyrrolo[2,1-b]thiazole-2,3-diyl)dimethanol]
Oral cancer OECM-1; Homo sapiens, OECM1, Table 6, 72 h
  IC50: 7.12 ± 0.95 µM
Prostate cancer PC3; Homo sapiens
  IC50: 10.7 ± 2.29 µM
[1]; Homo sapiens, CCRF-CEM, Table 5, 72 h incubation, read-out: Cell Growth inhibition (IC50 μM) CCRF-CEM
  IC50: 0.97 ± 0.07 µM
[2]; Homo sapiens, NCI-H1299, Table 6, 72 h
  IC50: 13.3 ± 2.23 µM
Glioma U87; Homo sapiens
  IC50: 28.7 ± 4.32 µM
CCRF-CEM/Taxol; Homo sapiens, CCRF-CEM
  IC50: 2.31 ± 0.0048 µM
CCRF-CEM/Taxol
  fold of cross-resistant vs IC50 of the parent cell line, CCRF-CEM/Taxol: 2.37 ×
CCRF-CEM/VBL; Homo sapiens, CCRF-CEM
  IC50: 2.44 ± 0.01 µM
CCRF-CEM/VBL
  fold of cross-resistant vs IC50 of the parent cell line, CCRF-CEM/VBL: 2.51 ×

## CCNC(=O)OCc1c(COC(=O)NCC)c2sc3ccccc3n2c1C [Compound 19a, (1-Methylbenzo[d]pyrrolo[2,1-b]thiazole-2,3-diyl)bis(methylene)bis(ethylcarbamate)]
[1]; [3]
  IC50: 0.33 ± 0.01 µM
CCRF-CEM/Taxol
  IC50: 0.45 ± 0.013 µM
  fold of cross-resistant vs IC50 of the parent cell line, CCRF-CEM/Taxol: 1.30 ×
CCRF-CEM/VBL
  fold of cross-resistant vs IC50 of the parent cell line, CCRF-CEM/VBL: 1.30 ×
  IC50: 0.43 ± 0.003 µM

## CCNC(=O)OCc1c(COC(=O)NCC)c2sc3ccccc3n2c1-c1ccc(F)cc1 [Compound 19b, (1-(4-Fluorophenyl)benzo[d]pyrrolo[2,1-b]thiazole-2,3-diyl)bis(methylene)bis(ethylcarbamate)]
Oral cancer OECM-1; Table 6, 72 h
  IC50: 11.5 ± 2.63 µM
Prostate cancer PC3
  IC50: 23.7 ± 3.05 µM
[1]; [3]
  IC50: 0.07 ± 0.0002 µM
[2]; Table 6, 72 h
  IC50: 13.6 ± 2.03 µM
Glioma U87
  IC50: 29.2 ± 2.63 µM
CCRF-CEM/Taxol
  IC50: 0.38 ± 0.002 µM
  fold of cross-resistant vs IC50 of the parent cell line, CCRF-CEM/Taxol: 5.42 ×
Breast carcinoma MX-1; Table 6, 72 h
  IC50: 0.48 ± 0.005 µM
Colon carcinoma HCT-116; Table 6, 72 h
  IC50: 0.52 ± 0.025 µM
CCRF-CEM/VBL
  fold of cross-resistant vs IC50 of the parent cell line, CCRF-CEM/VBL: 6.42 ×
  IC50: 0.45 ± 0.033 µM

## CCNC(=O)OCc1c(COC(=O)NCC)c2sc3ccccc3n2c1-c1ccc(F)c(F)c1 [Compound 19d, (1-(3,4-Difluorophenyl)benzo[d]pyrrolo[2,1-b]thiazole-2,3-diyl)bis(methylene)bis(ethylcarbamate)]
Oral cancer OECM-1; Table 6, 72 h
  IC50: 14.6 ± 3.39 µM
Prostate cancer PC3
  IC50: 19.3 ± 3.44 µM
[1]; [3]
  IC50: 0.21 ± 0.01 µM
[2]; Table 6, 72 h
  IC50: 10.3 ± 1.11 µM
Glioma U87
  IC50: 38.5 ± 7.21 µM
CCRF-CEM/Taxol
  IC50: 0.34 ± 0.008 µM
  fold of cross-resistant vs IC50 of the parent cell line, CCRF-CEM/Taxol: 1.61 ×
Breast carcinoma MX-1; Table 6, 72 h
  IC50: 1.49 ± 0.04 µM
Colon carcinoma HCT-116; Table 6, 72 h
  IC50: 1.1 ± 0.015 µM
CCRF-CEM/VBL
  fold of cross-resistant vs IC50 of the parent cell line, CCRF-CEM/VBL: 1.47 ×
  IC50: 0.31 ± 0.002 µM

## CCNC(=O)OCc1c(COC(=O)NCC)c2sc3ccccc3n2c1C1CC1 [Compound 19j, (1-Cyclopropylbenzo[d]pyrrolo[2,1-b]thiazole-2,3-diyl)bis(methylene)bis(ethylcarbamate)]
Oral cancer OECM-1; Table 6, 72 h
  IC50: 26.3 ± 4.44 µM
Prostate cancer PC3
  IC50: 24.2 ± 2.96 µM
[1]; [3]
  IC50: 0.17 ± 0.03 µM
[2]; Table 6, 72 h
  IC50: 20.6 ± 1.89 µM
Glioma U87
  IC50: 74.5 ± 8.7 µM
CCRF-CEM/Taxol
  IC50: 0.68 ± 0.004 µM
  fold of cross-resistant vs IC50 of the parent cell line, CCRF-CEM/Taxol: 4.01 ×
CCRF-CEM/VBL
  fold of cross-resistant vs IC50 of the parent cell line, CCRF-CEM/VBL: 3.18 ×
  IC50: 0.54 ± 0.008 µM

## CC(C)NC(=O)OCc1c(COC(=O)NC(C)C)c2sc3ccccc3n2c1-c1ccc(F)c(F)c1 [Compound 20d, (1-(3,4-Difluorophenyl)benzo[d]pyrrolo[2,1-b]thiazole-2,3-diyl)bis(methylene)bis(iso-propylcarbamate)]
Oral cancer OECM-1; Table 6, 72 h
  IC50: 15.1 ± 1.34 µM
Prostate cancer PC3
  IC50: 29.6 ± 1.83 µM
[1]; [3]
  IC50: 0.33 ± 0.001 µM
[2]; Table 6, 72 h
  IC50: 30.8 ± 6.92 µM
Glioma U87
  IC50: 74.9 ± 15.7 µM
CCRF-CEM/Taxol
  IC50: 0.19 ± 0.004 µM
  fold of cross-resistant vs IC50 of the parent cell line, CCRF-CEM/Taxol: 0.57 ×
Breast carcinoma MX-1; Table 6, 72 h
  IC50: 1 ± 0.002 µM
Colon carcinoma HCT-116; Table 6, 72 h
  IC50: 0.41 ± 0.005 µM
CCRF-CEM/VBL
  fold of cross-resistant vs IC50 of the parent cell line, CCRF-CEM/VBL: 0.90 ×
  IC50: 0.3 ± 0.001 µM

## CC(C)NC(=O)OCc1c(COC(=O)NC(C)C)c2sc3ccccc3n2c1C1CC1 [Compound 20j, (1-Cyclopropylbenzo[d]pyrrolo[2,1-b]thiazole-2,3-diyl)bis(methylene)bis(iso-propyl-carbamate)]
Oral cancer OECM-1; Table 6, 72 h
  IC50: 9.67 ± 1.06 µM
Prostate cancer PC3
  IC50: 13.4 ± 0.84 µM
[1]; [3]
  IC50: 0.1 ± 0.01 µM
[2]; Table 6, 72 h
  IC50: 20.4 ± 1.65 µM
Glioma U87
  IC50: 45.5 ± 6.19 µM
CCRF-CEM/Taxol
  IC50: 0.73 ± 0.013 µM
  fold of cross-resistant vs IC50 of the parent cell line, CCRF-CEM/Taxol: 7.30 ×
CCRF-CEM/VBL
  fold of cross-resistant vs IC50 of the parent cell line, CCRF-CEM/VBL: 9.00 ×
  IC50: 0.9 ± 0.011 µM

## CCNC(=O)OCc1c(COC(=O)NCC)c(-c2ccc(Cl)cc2)n2c1Cc1c(n(C)c3ccccc13)C2 [Compound 27d, [3-(4-Chlorophenyl)-6-methyl-6,11-dihydro-5H-indolizino[6,7-b]indole-1,2-diyl]bis(methylene)bis(ethylcarbamate)]
[1]; [4]
  IC50: 0.35 ± 0.013 µM
Breast carcinoma MX-1; Table 7, 72 h
  IC50: 1.83 ± 0.082 µM
Colon carcinoma HCT-116; Table 7, 72 h
  IC50: 1.17 ± 0.009 µM

## CC(C)NC(=O)OCc1c(COC(=O)NC(C)C)c(-c2ccc(Cl)cc2)n2c1Cc1c(n(C)c3ccccc13)C2 [Compound 28d, [3-(4-Chlorophenyl)-6-methyl-6,11-dihydro-5H-indolizino[6,7-b]indole-1,2-diyl]bis(methylene) (isopropylcarbamate)]
[1]; [4]
  IC50: 0.437 ± 0.003 µM
Breast carcinoma MX-1; Table 7, 72 h
  IC50: 12.39 ± 0.05 µM
Colon carcinoma HCT-116; Table 7, 72 h
  IC50: 3.06 ± 0.067 µM
